One molecule from patent publication US5214034A, “Catechol derivatives, and preventive and remedial preparations for regressive disorders in the central nervous system containing the same” (priority 1986, dated 1993) can be followed below.

The subject of assay [1] is rats injected with kainic acid at basal forebrain. The assay can be described thus: Promotion of recovery from retention deficits by repeated learning (passive avoidance). Also noted: key: latency in seconds to enter dark chamber, capped at 300 s. The assay is classed as in vivo, rat (male Sprague-Dawley). Particulars: Table 9, i.p. 5 mg/kg before each trial. As to the method:
(§1) Effects of the derivative on the behavioral parameters of rats injected with kainic acid at basal forebrain were characterized with regard to both prevention against deficits in retention of passive avoidance learning and promotion of recovery from damaged state by repeated learning.
(§2) Male Sprague-Dawley rats (9-10 weeks of age, 200-250 g of weight) were anesthetized with Nembutal (50 mg/kg, i.p.) and placed in a stereotaxic apparatus. Bilateral lesions of the ventral globus pallidus were made by direct stereotaxic application (0.7 mm posterior to bregma, 2.7 mm lateral to the midline, and 7.0 mm ventral to the brain surface) of 0.25 μg of kainic acid in 1 μl of PBS (pH 7.4) to prepare disordered models. Controls were sham-operated rats injected with PBS in place of kainic acid solution.
(§3) Passive avoidance procedures were performed by using a two chambered step-through passive avoidance apparatus with a guillotine door. A 3 mA scrambled shock was delivered to the dark floor grids for 3 seconds as a punishment. Habituation trial was conducted prior to the acquisition trial. Each rats were placed in the illuminated chamber and the guillotine door was raised after 10 seconds. As soon as the rats entered into the dark chamber, the door was lowered. The rats were removed after 10 seconds and returned to their home cages. […] The acquisition trial was performed similarly to the habituation trial. In the former case, a rat was placed in the illuminated room and the door was opened after 10 seconds. The door was shut immediately after the rat entered into the dark room, a scrambled foot shock was applied, and then the animal was removed. The latency to enter the dark chamber after opening the door was recorded for 300 seconds in the retention of passive avoidance. The latency exceeding 300 seconds was calculated as 300 seconds.
The promoting effects on the recovery by repeated training from the damaged state of retention were acessed by using 30 rats injected with kainic acid. Rats were subjected to the acquisition trial 10 days after the operation. The rats were equally divided into 3 groups after 24 hours and injected intrapenitroneally with 5 mg/kg of 4-n-propylcatechol and the derivative (A) (R=--CO--, R=H, R2 =n-propyl) respectively as a saline solution. The remaining 10 rats were intraperitoneally injected with saline alone. The first retention trial was carried out two days after the injection. Rats which entered into the dark chamber within 30 seconds were punished by the scrambled foot shock as a training. On the next day, all animals were administered again the same amount of test derivative or saline. These animals were subjected to the second retention trial two days after the second injection.
Retention trials, punishments and additional administrations were repeated as mentioned above four times in all.

In a further assay the test system is NGF. Briefly: NGF production in the central nervous system of normal rats by intraperitoneal injection (NGF content of brain tissue, ELISA). In kind it is in vivo, rat (Wistar male). Here is the method: The derivative (A), e.g. R=Two H, R1 =H and R2 =n-propyl (hereinafter referred to as 4-n-propylcatechol), was administered to normal rats by intraperitoneal injection, and the effect was examined.
4-n-Propylcatechol was administered by intraperitoneal injection 4 times every other day in a dosage of 5 mg/kg. The rats were killed two days after the final administration. The NGF content of each parts in brain was measured. The content was compared with those of control group which was administered saline alone.
A variety of the derivative was administered three times every other day. The content of NGF in the forebrain after 48 hours and 7 days from the final administration was measured and illustrated in Table 7.
Wistar male rats (9-10-week old, 200-250 g of weight) were intraperitoneally injected with the test derivative in a volume of 0.5 ml as a saline solution, emulsion or suspension. Dose and administration times were the same as above. The rats were killed by a hard spinal blow two days after the final administration. Each parts of brain were dissected and subjected to the following treatment under ice cooling.
Each parts of brain were weighed and homogenized for 30 strokes by a Dounce type homogenizer in a homogenization buffer (0.1 M Tris-HCl, containing 2% bovine serum albumin fraction V, 2% gelatin, 1.0 M NaCl, 0.02% NaN3, 2 mM EDTA and 2.6 kiu/ml of aprotinin, pH 7.6) at a concentration of 10% (W/V) (only septum 5% (W/V)). Each homogenate was centrifuged at 100,000 xg for 10 minutes, and 50 μl of supernatant was added with the same amount of a dilution buffer (0.1 M Tris-HCl containing 2% bovine serum albumin fraction V, 0.05% NaN3 and 20 mM CaCl2, pH 7.6). Determination was conducted in accordance with a method of S. Furukawa et al. by using a high sensitivity ELISA system on 8-NGF which was described in J. Neurochem., 40, 734-744 (1983). Lower limit of determination is 0.25 pg/ml. Data are indicated as a mean value ±SE on the NGF content of tissue (pg/mg wet tissue) of five rats.
A general note: ELISA stands for enzyme-linked immunosorbent assay.

For assay [2], the system named is rats injected with kainic acid at basal forebrain / sham-operated rats. The assay can be described thus: Retention of passive avoidance learning: prevention of retention deficits. The assay is classed as in vivo, rat (male Sprague-Dawley). The settings on record: Table 8, i.p. 5 mg/kg on days 1, 4, 7. Here is the method: as §1, §2, §3
The preventive effects on deficits in retention were estimated by using 60 rats. Thirty rats were injected with kainic acid and other 30 rats were sham-operated with PBS.
Each groups of animals were equally divided into three groups which were received intraperitoneally 5 mg/kg of the derivative (A) (R=2H, R1 =H, R2 =n-propyl, that is, 4-n-propylcatechol), derivative A (R=--CO--, R1 =H, R2 =n-propyl) and saline respectively as a saline solution on one, four and seven days after the operation.
Table 8 illustrates the results obtained by conducting the acquisition trial 10 days after the operation and the retention test after 24 hours.

Setting [3] is: Table 6, i.p. 5 mg/kg, 4 times every other day.
The mark [4] stands for this setting: Table 6, i.p. 5 mg/kg, 4 times every other day, **P 0.01 vs saline.

SMILES strings stand for the structures. Entries after “also recorded” stand apart in the source; their conditions may differ.

With `CCCc1ccc(O)c(O)c1` [R = Two H, R1 = H, R2 = n-Propyl, 4-n-propylcatechol], in assay [1], the “Mean latency, 1st retention trial” value came to 47 ± 16. For the same molecule, the “Mean latency, 4th retention trial” value in assay [1] (**P < 0.01) is on record as 272 ± 14. Moreover, in assay [1] (*P < 0.05), the “Mean latency, 2nd retention trial” value is on record as 147 ± 29 and the “Mean latency, 3rd retention trial” value is recorded as 201 ± 23. Also, the “NGF production in brain regions (in words)” value in the assay on NGF was “marked activation of NGF production was observed in frontal cortex, hippocampus and olfactory bulb; also recorded: Significant increase in NGF level was also observed in the original region of cholinergic tracts”. Besides, in the assay with NGF (setting [3]), the “NGF content, cerebellum” value came to 0.33 ± 0.16 pg/mg wet tissue and the “NGF content, striatum” value was determined as 0.24 ± 0.04 pg/mg wet tissue. In the assay on NGF (setting [4]), the “NGF content, NBM (nucleus basalis magnecellularis)” value amounted to 1.69 ± 0.17 pg/mg wet tissue; the “NGF content, olfactory bulb” value amounted to 1.70 ± 0.24 pg/mg wet tissue; the “NGF content, septum” value turned out to be 1.39 ± 0.14 pg/mg wet tissue. The “NGF content, hippocampus” value in the assay on NGF (Table 6, i.p. 5 mg/kg, 4 times every other day, *P < 0.05 vs saline) turned out to be 3.92 ± 0.63 pg/mg wet tissue. Besides, the “NGF content, frontal cortex” value in the assay with NGF (Table 6, i.p. 5 mg/kg, 4 times every other day, two days after final administration, *P < 0.05 vs saline) was determined as 2.14 ± 0.49 pg/mg wet tissue. Further, in the assay with NGF (Table 7, i.p., three times every other day, 48 hours after final administration), the “NGF content after 48 hr.” value is recorded as 1.97 ± 0.41 pg/mg wet tissue of frontal co. Further, the “NGF content after 7 days” value in the assay on NGF (Table 7, i.p., three times every other day, 7 days after final administration) is 2.28 ± 0.29 pg/mg wet tissue of frontal co. The “Animals with more than 150 sec of latency” value in assay [2] (rats operated with kainic acid) is 3 in 10 animals. Also, the Mean latency in assay [2] (rats operated with kainic acid, *P < 0.01 vs control) worked out at 114 ± 44 s. In assay [2] (sham-operated rats), the “Animals with more than 150 sec of latency” value was found to be 10 in 10 animals and the Mean latency came to 286 ± 9 s.
